Assay results reported in patent US8101764B2, “MCH receptor antagonists” (Eli Lilly and Company, priority 2006, dated 2012).
Where a name gives a salt, the structure may show the parent alone.

Experiments:
human MCHR1 [1] = target: T1, human MCHR1 (Homo sapiens, UniProt Q99705); test: 125I-MCH competitive binding assay with clone 43 membranes; conditions: Ki from IC50 by Cheng-Prusoff
T1 construct: The full-length cDNA for human MCHR1 is cloned from a human adult brain cDNA library; expressed in transfected cells; host or cells: AV12 cells previously transfected with Gα15; membranes
Description: (§1) The full-length cDNA for human MCHR1 is cloned from a human adult brain cDNA library (Edge Biosystems, Cat. 38356) by standard polymerase chain reaction (PCR) methodology employing the following primers: sense, 5′-GCCACCATGGACCT GGAAGCCTCGCTGC-3′ (SEQ ID NO:1); anti-sense, 5′-[…]-3′ (SEQ ID NO:2). The PCR reaction is performed in a final volume of 50 μL containing 5 μL of a 10× stock solution of PCR buffer, 1 μL of 10 mM dNTP mixture (200 μM final), 2 μL of 50 mM Mg(SO4) (2 mM final), 0.5 μL of 20 μM solutions of each primer (0.2 μM final), 5 μL of template cDNA containing 0.5 ng DNA, 0.5 μL of Platinum Taq High Fidelity DNA polymerase (Gibco Life Technologies) and 36 μL of H2O. […]
(§2) In order to generate cell lines stably expressing MCHR1, subclone the insert into the Xba I and Not I sites of pcDNA(+)-3.1-neomycin (Invitrogen). […] The G418-resistant colonies are further selected for MCHR1 expression by measuring MCH-stimulated Ca^2+ transients with a fluorometric imaging plate reader (FLIPR, Molecular Devices). […]
Binding of compounds to MCHR1 is assessed in a competitive binding assay employing ^125I-MCH, compound and clone 43 membranes. […] Non-specific binding is assessed in the presence of 0.1 μM unlabeled MCH. Bound ^125I-MCH is determined by placing sealed plates in a Microbeta Trilux (Perkin Elmer Life and Analytical Sciences Inc.) and counting after a 12 h delay. […]

human MCHR1 [2] = target: T1, human MCHR1; test: Inhibition of MCH-stimulated GTPγ35S binding to clone 43 membranes (functional antagonism); assay type: biochemical; conditions: 10 nM MCH, Kb from IC50 by modified Cheng-Prusoff
Description: as §1, with “H2O. PCR amplification is performed on a Perkin Elmer 9600 thermocycler. Perform denaturation for 90 sec at 94° C., and repeat an amplification sequence consisting of 94° C. for 25 sec, 55° C. for 25 sec and 72° C. for […] 30 times, followed by a final elongation step at 72° C. for 10 min.” for “H2O.”
as §2

[3] = In vivo efficacy in diet-induced obese rats, oral gavage, body weight change over 3 days; conditions: 10 mg/Kg orally once a day for 3 days, diet-induced obese male Long-Evans rats
Description: Vehicle consisted of 10% acacia and 0.15% saccharin in water.
House animals individually in a temperature regulated room (24° C.) with a reverse 12 hour light/dark cycle (dark 10:00/22:00). Make water and food (Teklad 95217, Harlan, WI) available ad libitum. Dose compounds orally once a day before onset of dark for 3 days. Measure daily food intake and body weight change for the 3 day period. The compound of Example 5 produced an average body weight reduction of about 11 grams @ 10 mg/Kg versus vehicle control.

T1 sequence (Q99705 whole entry): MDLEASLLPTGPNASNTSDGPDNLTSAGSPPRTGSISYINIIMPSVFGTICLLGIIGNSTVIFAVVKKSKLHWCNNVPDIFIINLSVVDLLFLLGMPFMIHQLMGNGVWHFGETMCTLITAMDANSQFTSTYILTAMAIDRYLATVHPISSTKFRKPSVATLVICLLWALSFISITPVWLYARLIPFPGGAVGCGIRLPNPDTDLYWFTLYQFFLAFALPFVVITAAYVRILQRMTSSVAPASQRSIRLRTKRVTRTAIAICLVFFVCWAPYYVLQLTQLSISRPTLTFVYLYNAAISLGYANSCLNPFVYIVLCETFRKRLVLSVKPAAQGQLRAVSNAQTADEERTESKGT

Ki (human MCHR1 [1]) [nM]	Kb (human MCHR1 [2]) [nM]	Structure (SMILES)	average body weight reduction versus vehicle control [3]
~9		CN(C)[C@@H]1CCN(c2ccc(-n3ccc4cc(-c5ccc(OC6CC6)cc5)sc4c3=O)cn2)C1 [Example 55, 2-(4-Cyclopropoxy-phenyl)-6-[6-(R)-(3-dimethylamino-pyrrolidin-1-yl)-pyridin-3-yl]-6H-thieno[2,3-c]pyridin-7-one, hydrochloride]	
	~7	CN(C)[C@@H]1CCN(c2ccc(N3CCc4cc(-c5ccc(Cl)cc5)sc4C3=O)cn2)C1.Cl [Example 5, 2-(4-Chloro-phenyl)-6-[6-((R)-3-dimethylamino-pyrrolidin-1-yl)-pyridin-3-yl]-5,6-dihydro-4H-thieno[2,3-c]pyridin-7-one, hydrochloride]	about 11 grams
